PMC7051184, “C9orf72 arginine-rich dipeptide repeat proteins disrupt karyopherin-mediated nuclear import” (eLife, 2020)
Where a SMILES comes first, the peptide text is derived from it.

Columns and labels:
[1] = molecular target: importin β-mediated nuclear import of Rango (Homo sapiens, UniProt Q14974); assay: Fractionated Rango transport assay (aggregates present or supernatant only), HeLa; format: cell-based
Method: A single cell-derived clone of HeLa cells (ATCC, Manassas, VA; mycoplasma negative and validated by STR profiling) were maintained in OptiMEM (Gibco/ThermoFisher) with 4% FBS and plated on uncoated optical glass-bottom 96 well plates, at appropriate densities to reach 70–90% confluence on the day of the transport assay. To permeabilize, cells were rinsed for 2 min in ice-cold PBS, and permeabilized on ice for 10 min in 15–30 µg/mL digitonin (Calbiochem, San Diego, CA) in permeabilization buffer (PRB, 20 mM HEPES, 110 mM KOAc, 5 mM Mg(OAc)2, 0.5 mM EGTA, 250 mM sucrose, pH 7.5, with protease inhibitor cocktail). Following permeabilization, cells were placed on ice and rinsed 3 × 5 min in transport buffer (TRB, 20 mM HEPES, 110 mM KOAc, 2 mM Mg(OAc)2, 5 mM NaOAc, 0.5 mM EGTA, 250 mM sucrose, pH 7.3, with protease inhibitor cocktail). The optimal digitonin concentration varied by cell density and passage number, and was optimized prior to each set of assays for the ability to permeabilize the majority of plasma membranes while maintaining nuclear exclusion of a 70 kD fluorescent dextran (ThermoFisher).
Reaction mixes consisting of 2.5 mg/ml lysate, ER, fluorescent cargo (200 nM Rango and YFP-M9-CFP, 500 nM GST-GFP-NLS), Hoechst, DPRs, RNA, or inhibitors (100 µM importazole (IPZ, Millipore Sigma); 0.8 mg/mL wheat germ agglutinin (WGA, Millipore Sigma) were assembled on ice during cell permeabilization. DPRs or inhibitors were allowed to equilibrate in cell lysate for at least 30 min prior to initiation of transport. Every plate included: (1) Cargo alone: fluorescent cargo, but no ER or lysate, (2) Untreated controls: fluorescent cargo, ER, and lysate, and (3) Inhibitor: fluorescent cargo, ER, lysate, and IPZ (Rango and GST-GFP-NLS reactions) or WGA (YFP-M9-CFP). Preassembled transport reactions were then transferred onto permeabilized cells via multichannel pipette, and allowed to proceed at room temperature for 2 hr (Rango, YFP-M9-CFP) or 4 hr (GST-GFP-NLS). Cells were fixed in 4% paraformaldehyde/PBS, rinsed 2x with PBS, and transferred to 50% glycerol/PBS for immediate imaging.
For a subset of neuron transport assays, transport was monitored live via time lapse imaging every 5 min for 30 min. […]
Multiple non-overlapping fields per well (4 for time-lapse imaging, 9-16 for fixed imaging), were captured at 40x on an ImageXpress Micro XLS high-content microscope (Molecular Devices, San Jose, CA), and the ratio of nuclear to cytoplasmic fluorescence intensity was calculated using the MetaXpress automated translocation-enhanced module. […] Resulting N/C ratios were expressed as % untreated, to permit comparisons across biological replicates.

Nup100(1-610) = format: binding, S. cerevisiae; settings: AF488-labeled
Method: (§1) The expression of GST- Nsp1(497-609) in BL21(DE3) cells grown in LB media was induced at OD600nm = 0.4–0.6, followed by incubation at 37°C for 3–5 hr. The GST-tagged S. cerevisiae pGEX-Nup100(1-307), Nup100(1-610), Nup116(348-458) and Nup116(348-458)F > A were expressed in T7 Shuffle cells (NEB) that were grown in Dynamite media ([Taylor et al., 2017]) until OD600nm = 0.9 before induction with IPTG at 37°C for 3 hr. All the GST-tagged Nup fragments were purified using glutathione-sepharose affinity chromatography, as described for the GST-GFP-NLS above, and dialyzed into PBS before storage.
(§2) The bead halo assay was carried out as described with minor modifications ([Patel and Rexach, 2008]), using […] polystyrene beads coated with neutravidin (for biotinylated proteins) or glutathione (for GST-fusion proteins) (Spherotech, Lake Forest, IL). Beads were coated overnight at 4°C at saturating concentrations per manufacturers’ instructions and rinsed 2x in binding buffer (20 mM HEPES [pH 7.4], 150 mM KOAc, 2 mM Mg(OAc)2, 1 mM DTT, 0.1% Tween-20). Immediately prior to the assay, fluorescent bait proteins and beads were combined with 4x assay buffer (40 mM EDTA, 40 mg/ml BSA, 500 mM NaCl, and 0.2% Tween) to a total of 40 µL per well, in optical glass-bottom 96-well plates (Cellvis, Mountain View, CA). Reactions were allowed to equilibrate at room temperature for a minimum of 30 min prior to imaging at 100x on an LSM800 confocal microscope (Zeiss, Oberkochen, Germany). Intensity profiles comparing the maximum rim intensity to the background were plotted in ImageJ (NIH) by an investigator blinded to experimental conditions.

Nup100(1-307) = format: binding, S. cerevisiae; settings: AF488-labeled
Method: as §1, §2

Sequence of importin β-mediated nuclear import of Rango (Q14974 whole entry): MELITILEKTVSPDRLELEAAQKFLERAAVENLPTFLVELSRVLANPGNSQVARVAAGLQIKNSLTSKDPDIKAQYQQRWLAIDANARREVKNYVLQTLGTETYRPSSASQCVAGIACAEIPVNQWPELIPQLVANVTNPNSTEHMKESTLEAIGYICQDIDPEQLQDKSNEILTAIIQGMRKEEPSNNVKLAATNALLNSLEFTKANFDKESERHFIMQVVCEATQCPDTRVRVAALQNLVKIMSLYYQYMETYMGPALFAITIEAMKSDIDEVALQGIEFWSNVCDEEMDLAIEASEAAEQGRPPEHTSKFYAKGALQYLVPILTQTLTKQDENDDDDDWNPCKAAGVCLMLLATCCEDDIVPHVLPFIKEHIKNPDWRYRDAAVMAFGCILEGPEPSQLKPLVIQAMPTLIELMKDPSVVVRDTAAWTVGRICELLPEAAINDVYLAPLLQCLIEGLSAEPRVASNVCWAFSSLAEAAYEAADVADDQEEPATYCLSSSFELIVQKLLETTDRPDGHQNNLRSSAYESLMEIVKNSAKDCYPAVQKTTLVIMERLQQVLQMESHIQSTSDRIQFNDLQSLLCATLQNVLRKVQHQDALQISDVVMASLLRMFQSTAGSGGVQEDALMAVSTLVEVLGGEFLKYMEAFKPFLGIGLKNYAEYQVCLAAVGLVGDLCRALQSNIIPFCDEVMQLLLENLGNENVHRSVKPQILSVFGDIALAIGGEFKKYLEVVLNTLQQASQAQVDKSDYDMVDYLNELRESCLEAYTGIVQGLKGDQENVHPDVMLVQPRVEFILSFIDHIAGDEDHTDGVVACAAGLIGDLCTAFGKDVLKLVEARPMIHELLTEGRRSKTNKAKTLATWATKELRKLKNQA

## N=C(N)NCCC[C@H](NC(=O)[C@@H]1CCCN1C(=O)[C@H](CCCNC(=N)N)NC(=O)[C@@H]1CCCN1C(=O)[C@H](CCCNC(=N)N)NC(=O)[C@@H]1CCCN1C(=O)[C@H](CCCNC(=N)N)NC(=O)[C@@H]1CCCN1C(=O)[C@H](CCCNC(=N)N)NC(=O)[C@@H]1CCCN1C(=O)[C@H](CCCNC(=N)N)NC(=O)[C@@H]1CCCN1C(=O)[C@H](CCCNC(=N)N)NC(=O)[C@@H]1CCCN1C(=O)[C@H](CCCNC(=N)N)NC(=O)[C@@H]1CCCN1C(=O)[C@H](CCCNC(=N)N)NC(=O)[C@@H]1CCCN1C(=O)[C@H](CCCNC(=N)N)NC(=O)[C@@H]1CCCN1)C(=O)O [PR10] (H-PRPRPRPRPRPRPRPRPRPR-OH; N-terminus and C-terminus assumed)
[1]
  Rango import with supernatant only (aggregates removed by centrifugation): nuclear import remained perturbed
[1]; RNA added
  Rango import with supernatant only plus RNA: restored by the addition of RNA
Nup100(1-610); binding buffer
  Binding to Nup100 GLFG-domain (halo intensity): modest selective binding
Nup100(1-610); + unlabeled importin β
  FG-binding with added unlabeled importin β: FG-binding could be augmented
Nup100(1-307); binding buffer
  Binding to Nup100 GLFG-domain (halo intensity): modest selective binding
Nup100(1-307); + unlabeled importin β
  FG-binding with added unlabeled importin β: FG-binding could be augmented
